Test results: ChEMBL document CHEMBL1157030 (Eur J Med Chem, 2010)
pIC50: −log10 of the molar value.

Columns and labels:
Cholinesterase = Cholinesterase (Equus caballus, UniProt P81908)
Description: inhibition of equine serum BuChE by Ellman's method

Acetylcholinesterase = Acetylcholinesterase (Electrophorus electricus, UniProt O42275)
Chain of Acetylcholinesterase (O42275 whole entry): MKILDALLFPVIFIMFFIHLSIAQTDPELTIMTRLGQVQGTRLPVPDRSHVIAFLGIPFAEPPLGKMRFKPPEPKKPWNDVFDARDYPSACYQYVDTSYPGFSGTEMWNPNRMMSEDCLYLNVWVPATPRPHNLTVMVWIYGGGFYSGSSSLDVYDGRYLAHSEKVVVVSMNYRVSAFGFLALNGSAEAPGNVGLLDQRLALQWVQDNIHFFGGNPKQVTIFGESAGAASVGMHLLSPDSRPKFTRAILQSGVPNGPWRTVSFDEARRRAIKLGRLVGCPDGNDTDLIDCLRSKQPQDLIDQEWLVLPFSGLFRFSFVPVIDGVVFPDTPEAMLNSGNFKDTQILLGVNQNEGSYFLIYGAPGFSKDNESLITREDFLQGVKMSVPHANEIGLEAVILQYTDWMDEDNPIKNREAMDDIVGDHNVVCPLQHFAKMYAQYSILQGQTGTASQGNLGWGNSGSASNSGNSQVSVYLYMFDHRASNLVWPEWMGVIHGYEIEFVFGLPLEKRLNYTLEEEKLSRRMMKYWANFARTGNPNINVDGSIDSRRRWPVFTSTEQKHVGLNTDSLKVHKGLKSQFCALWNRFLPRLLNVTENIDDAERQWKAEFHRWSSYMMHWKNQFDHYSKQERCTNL
Description: inhibition of electric eel AChE by Ellman's method

Chain of Cholinesterase (P81908 whole entry): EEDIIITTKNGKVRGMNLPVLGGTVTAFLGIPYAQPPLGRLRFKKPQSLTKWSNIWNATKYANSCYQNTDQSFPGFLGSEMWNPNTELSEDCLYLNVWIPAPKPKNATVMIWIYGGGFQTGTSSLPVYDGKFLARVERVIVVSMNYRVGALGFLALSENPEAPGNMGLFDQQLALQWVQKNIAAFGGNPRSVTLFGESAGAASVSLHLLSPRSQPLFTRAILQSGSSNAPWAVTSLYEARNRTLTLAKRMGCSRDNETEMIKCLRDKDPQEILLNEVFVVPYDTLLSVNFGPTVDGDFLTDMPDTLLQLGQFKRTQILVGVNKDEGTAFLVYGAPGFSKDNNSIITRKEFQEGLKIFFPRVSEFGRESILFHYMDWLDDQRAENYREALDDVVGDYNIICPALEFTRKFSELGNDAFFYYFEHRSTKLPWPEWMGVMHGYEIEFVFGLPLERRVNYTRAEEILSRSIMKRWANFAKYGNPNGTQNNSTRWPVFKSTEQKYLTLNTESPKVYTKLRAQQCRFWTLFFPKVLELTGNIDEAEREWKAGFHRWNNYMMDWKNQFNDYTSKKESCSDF

SMILES: O=C(CCN1CCCC1)Nc1ccc2nc3n(c(=O)c2c1)CCc1c-3[nH]c2ccccc12
- pIC50 (Cholinesterase): 6.07
- pIC50 (Acetylcholinesterase): 7.53

SMILES: O=C(CN1CCCC1)Nc1ccc2ncn(CCc3c[nH]c4ccccc34)c(=O)c2c1
- pIC50 (Cholinesterase): 4.59
- pIC50 (Acetylcholinesterase): 5.39

SMILES: O=C(CN1CCCCC1)Nc1ccc2ncn(CCc3c[nH]c4ccccc34)c(=O)c2c1
- pIC50 (Cholinesterase): 4.89
- pIC50 (Acetylcholinesterase): 5.82

SMILES: CCN(CC)CC(=O)Nc1ccc2nc3n(c(=O)c2c1)CCc1c-3[nH]c2ccccc12
- pIC50 (Cholinesterase): 4.75
- pIC50 (Acetylcholinesterase): 6.43

SMILES: O=C(CCN1CCCCC1)Nc1ccc2nc3n(c(=O)c2c1)CCc1c-3[nH]c2ccccc12
- pIC50 (Cholinesterase): 5.68
- pIC50 (Acetylcholinesterase): 7.67

SMILES: CCN(CC)CC(=O)Nc1ccc2nc3c4[nH]c5ccccc5c4ccn3c(=O)c2c1
- pIC50 (Cholinesterase): 4.94
- pIC50 (Acetylcholinesterase): 7.24

SMILES: O=C(CN1CCCC1)Nc1ccc2nc3c4[nH]c5ccccc5c4ccn3c(=O)c2c1
- pIC50 (Cholinesterase): 6.37
- pIC50 (Acetylcholinesterase): 7.63

SMILES: O=C(CN1CCCC1)Nc1ccc2nc3n(c(=O)c2c1)CCc1c-3[nH]c2ccccc12
- pIC50 (Cholinesterase): 6.16
- pIC50 (Acetylcholinesterase): 6.88

SMILES: O=C(CN1CCCCC1)Nc1ccc2nc3n(c(=O)c2c1)CCc1c-3[nH]c2ccccc12
- pIC50 (Cholinesterase): 4.48
- pIC50 (Acetylcholinesterase): 6.95

SMILES: CCN(CC)CCC(=O)Nc1ccc2nc3n(c(=O)c2c1)CCc1c-3[nH]c2ccccc12
- pIC50 (Cholinesterase): 5.55
- pIC50 (Acetylcholinesterase): 7.10

SMILES: O=C(CN1CCCCC1)Nc1ccc2nc3c4[nH]c5ccccc5c4ccn3c(=O)c2c1
- pIC50 (Cholinesterase): 5.27
- pIC50 (Acetylcholinesterase): 8.00

SMILES: CCN(CC)CC(=O)Nc1ccc2ncn(CCc3c[nH]c4ccccc34)c(=O)c2c1
- pIC50 (Cholinesterase): 4.38
- pIC50 (Acetylcholinesterase): 5.11
